Assay results from US20070037752A1, “Novel alanyl-amino peptidase inhibitors for functionally influencing different cells and treating immunological, inflammatory, neuronal, and other diseases” (priority 2003, published 2007).

System: female Balb/c mice
Assay: Ovalbumine-induced asthma bronchiale, pulmonal function (EF50) and eosinophilia
Format: in vivo
Conditions: i.p. 0.1 mg of each inhibitor, days 28-35; FIG. 3 A
Protocol: Therapeutic effect of the combined inhibition of alanyl aminopeptidases and of enzymes having an analogous effect as well as of dipeptidyl peptidase IV and of enzymes having an analogous effect on the ovalbumine-induced asthma bronchiale ib mice (animal model of human asthma bronchiale).
Female Balb/c mice were sensitized for the antigen ovalbumine capable of inducing asthma bronchiale by an intreperitoneal administration of 10 μg ovalbumine on the days 0, 14 and 21. On day 27/28, the animals received a boostering dose of ovalbumine by inhalation [vD3]. After an intreperitoneal administration of the peptidase inhibitors on the days 28-35, there was effected an intranasal ovalbumine challenge on day 35, as well as a check of the allergic premature reaction via the pulmonal function. There were measured: the average expiratory flux (EF50), the tidal volume, the respiration rate and the minute volume as well as the number of eosinophilic granulocytes in the bronchoalveolar lavage.
8 to 10 animals were used per experimental group. By way of example, in FIG. 3 A, there is summarized the effect of the peptidase inhibitors on the reduction of the EF50 value. […] Group E represents animals which were not sensitized by OVA, but which were subjected—beyond that—all procedures to which the animal groups A to D were subjected.

Compound	effect on the reduction of the EF50 value (pulmonal function)
CCCCC[C@H](CC(=O)NO)C(=O)N[C@H](C(=O)N1CCC[C@H]1CO)C(C)C [Actinonine]	showed a therapeutic effect
N[C@@H](CCCCNC(=O)OCc1ccc([N+](=O)[O-])cc1)C(=O)N1CCCC1 [Lys[Z(NO2)]pyrrolidide]	showed a therapeutic effect

Molecular target: alanyl aminopeptidases (APN) (Homo sapiens, UniProt P15144)
Sequence (P15144 whole entry, species assumed): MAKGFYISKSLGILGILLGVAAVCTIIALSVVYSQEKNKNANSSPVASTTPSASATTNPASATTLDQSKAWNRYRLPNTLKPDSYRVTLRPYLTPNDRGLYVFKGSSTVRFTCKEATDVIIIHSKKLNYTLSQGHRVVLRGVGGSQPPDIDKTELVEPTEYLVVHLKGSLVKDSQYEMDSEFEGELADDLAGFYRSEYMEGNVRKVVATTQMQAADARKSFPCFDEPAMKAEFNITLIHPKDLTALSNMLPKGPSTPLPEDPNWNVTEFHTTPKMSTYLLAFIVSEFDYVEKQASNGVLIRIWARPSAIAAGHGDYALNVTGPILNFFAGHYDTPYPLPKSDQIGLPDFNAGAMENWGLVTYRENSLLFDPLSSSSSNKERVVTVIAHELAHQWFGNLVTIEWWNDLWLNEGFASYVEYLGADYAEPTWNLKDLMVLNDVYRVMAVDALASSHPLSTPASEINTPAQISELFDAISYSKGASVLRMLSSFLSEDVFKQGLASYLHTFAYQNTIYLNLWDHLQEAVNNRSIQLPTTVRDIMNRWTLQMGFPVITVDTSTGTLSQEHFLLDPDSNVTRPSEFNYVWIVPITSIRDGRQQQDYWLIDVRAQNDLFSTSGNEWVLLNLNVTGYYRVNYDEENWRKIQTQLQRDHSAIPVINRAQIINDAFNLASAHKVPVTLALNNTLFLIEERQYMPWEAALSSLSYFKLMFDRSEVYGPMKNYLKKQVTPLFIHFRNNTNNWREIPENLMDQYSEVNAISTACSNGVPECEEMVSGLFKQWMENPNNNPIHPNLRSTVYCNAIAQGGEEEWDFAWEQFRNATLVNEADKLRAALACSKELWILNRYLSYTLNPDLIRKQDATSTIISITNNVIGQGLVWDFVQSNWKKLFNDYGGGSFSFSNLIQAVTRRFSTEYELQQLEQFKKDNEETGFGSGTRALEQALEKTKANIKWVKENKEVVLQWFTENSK
Assay: Inhibition of alanyl aminopeptidase enzymatic activity, fluorogenic substrate (Ala)2-rhodamine 110
Format: biochemical
Conditions: Table 12; read-out: IC50APN
Protocol: The inhibition characteristics measured are referred to as IC-50 values or ID50 values (the latter marked with “*”) for said enzyme. The enzymatic activity was determined by means of the fluorogenic substrate/product (Ala)2-rhodamine 110.

Compound	IC50
CC1=C(C#N)C(=O)N(CC(C)O)C(=O)/C1=C/c1ccc(-c2cccc(Cl)c2C)o1 (stereo not shown) [A12.048]	28.6 µM
CCOC(=O)C(NC(=O)c1ccccc1)(N1CCC(Cc2ccccc2)CC1)C(F)(F)F (stereo not shown) [A12.049]	29.9 µM
Cc1ccc(C(=O)N/C(=C/c2ccco2)C(=O)N(C)C)cc1 [A12.052]	32.5 µM
COc1ccc(C(OCCC(=O)NO)c2ccccc2)cc1 (stereo not shown) [A12.053]	33 µM
Cc1ccccc1NC(=O)C1C(c2cccs2)C(C#N)=C(SCC(=O)Nc2ccc(Br)cc2)NC1(C)O (stereo not shown) [A12.054]	33.9 µM
CC(C)C1N=C(Cc2cccnc2)N(CCCN2CCCC2=O)C1C(=O)NCc1ccccc1 (stereo not shown) [A12.055]	34 µM
COC(=O)C(NC(=O)c1ccccc1)(Nc1sc2c(c1C#N)CCC(C(C)(C)C)C2)C(F)(F)F (stereo not shown) [A12.056]	43.6 µM
CC1=C(C#N)C(=O)N(CC(C)O)C(=O)/C1=C/c1ccc(-c2ccc(Br)cc2)o1 (stereo not shown) [A12.058]	47.2 µM
CSCCC(Nc1ncnc2c1oc1ccccc12)C(=O)O (stereo not shown) [A12.060]	48.4 µM
CSCCC(NC(=O)c1ccc(C(F)(F)F)cc1)C(=O)NO (stereo not shown) [A12.061]	51.2 µM
Cc1ccc(/C=C(\NC(=O)c2ccccc2)C(=O)NCCN2CCOCC2)o1 [A12.063]	55 µM
O=C1Nc2cc(C(=O)N3CCN(c4ccccc4)CC3)ccc2NC1CSCc1ccccc1F (stereo not shown) [A12.065]	61.5 µM
N#CCCCCCCCCC(=O)NO [A12.069]	80.6 µM
O=C(OCCN1CCCCC1)C1c2ccccc2Oc2ccccc21 [A12.070]	94.8 µM
COc1c(OCC(O)C(C)(C)O)ccc2c1N=C1OC=CC1C2OC (stereo not shown) [A12.072]	117 µM

Same assay, conditions: Table 13; read-out: IC50APN

Compound	IC50
CC1=C(C#N)C(=O)N(CCO)C(=O)/C1=C\c1ccc(-c2cc(Cl)ccc2Cl)o1 [A13.001]	1.2 µM
CCOC(=O)c1ccc(-c2ccc(/C=C3\C(=O)N(CCO)C(=O)C(C#N)=C3C)o2)cc1 [A13.002]	2.7 µM
COC(=O)c1ccc(-c2ccc(/C=C3\C(=O)N(CCCO)C(=O)C(C#N)=C3C)o2)cc1 [A13.003]	5 µM
COC(=O)c1cccc(-c2ccc(/C=C3\C(=O)N(CCO)C(=O)C(C#N)=C3C)o2)c1 [A13.004]	6.3 µM
Cc1ccc(/C=N/NC(=O)c2cccc(Cl)c2)o1 [A13.005]	10.5 µM
COC(=O)c1cc(-c2ccc(/C=C3\C(=O)N(CCCO)C(=O)C(C#N)=C3C)o2)ccc1Cl [A13.006]	15.2 µM
CC1=C(C#N)C(=O)N(CCCO)C(=O)/C1=C\c1ccc(-c2ccc(Br)cc2)o1 [A13.007]	16 µM
C=CCOC(=O)c1cc(-c2ccc(/C=C3/C(=O)N(CCCO)C(=O)C(C#N)=C3C)o2)ccc1Cl [A13.008]	18.1 µM
CC(=O)c1cccc(-c2ccc(/C=C3/C(=O)N(CCCO)C(=O)C(C#N)=C3C)o2)c1 [A13.009]	18.2 µM
CCCOc1[nH]c(/N=C/c2ccccc2)c(C#N)c1C#N [A13.010]	20 µM
CCCN1C(=O)C(C#N)=C(C)/C(=C\c2ccc(-c3cccc(Cl)c3C)o2)C1=O [A13.011]	20.8 µM
CC1=C(C#N)C(O)=NC(=O)/C1=C/c1ccc(-c2ccc(Cl)c(C(=O)OC(C)C)c2)o1 [A13.012]	21.4 µM
N#C/C(=C\c1ccc(N2Cc3ccccc3C2)cc1)C(=O)NCC1CCCO1 (stereo not shown) [A13.013]	28.1 µM
CC1=C(C#N)C(=O)N(CC(C)O)C(=O)/C1=C/c1ccc(-c2cccc(Cl)c2C)o1 (stereo not shown) [A13.014]	28.6 µM
C=CCN1C(=O)C(C#N)=C(C)/C(=C\c2ccc(-c3cc(C)c(C)cc3[N+](=O)[O-])o2)C1=O [A13.015]	29.3 µM
CCCOC(=O)c1cc(-c2ccc(/C=C3\C(=O)NC(=O)C(C#N)=C3C)o2)ccc1Cl [A13.016]	36.8 µM
CCCOC(=O)c1cc(-c2ccc(/C=C3/C(=O)N(CC(C)O)C(=O)C(C#N)=C3C)o2)ccc1Cl (stereo not shown) [A13.017]	32 µM
CC1=C(C#N)C(O)=NC(=O)/C1=C/c1ccc(-c2ccc(Cl)cc2Cl)o1 [A13.018]	32.4 µM
Cc1ccccc1NC(=O)C1C(c2cccs2)C(C#N)=C(SCC(=O)Nc2ccc(Br)cc2)NC1(C)O (stereo not shown) [A13.019]	33.9 µM
CCOC(=O)c1cc(-c2ccc(/C=C3\C(=O)N(CCCO)C(=O)C(C#N)=C3C)o2)ccc1Cl [A13.020]	41 µM
CC1=C(C#N)C(=O)N(CC(C)O)C(=O)/C1=C/c1ccc(-c2ccc(Br)cc2)o1 (stereo not shown) [A13.021]	47.2 µM
CC1CCc2c(sc(NC(=O)C(C(F)(F)F)C(F)(F)F)c2C#N)C1 (stereo not shown) [A13.022]	51.3 µM
CCCOC(=O)c1cc(-c2ccc(/C=C3\C(=O)N(CCO)C(=O)C(C#N)=C3C)o2)ccc1Cl [A13.023]	54 µM
CC1=C(C#N)C(=O)N(CCO)C(=O)/C1=C\c1ccc(-c2ccc(C)c(Cl)c2)o1 [A13.024]	125 µM

Same assay, conditions: Table 14

Compound	IC50APN
COC(=O)C1=C(N)N2C(=O)CSC2=C(C(=O)OC)C1 [A14.001]	“positively very highly active”, means beyond measurement- scale”

Same assay, conditions: Table 14; read-out: IC50APN

Compound	IC50
COC(=O)C1=C(N)N2C(=O)CSC2=C(C(=O)OC(C)C)C1 [A14.002]	5.9 µM
CCOC(=O)C1=C2SCC(=O)N2C(N)=C(C#N)C1 [A14.003]	23.1 µM

System: female Balb/c mice
Assay: Dextran sulfate-induced colitis, disease score
Format: in vivo
Conditions: 10 μg single inhibitor i.p., three days from day 5, score on day 7; insignificant
Text: Therapeutic Effect of the Combined Inhibition of the Alanyl Aminopeptidases and of Enzymes Having an Analogous Effect as Well as of Dipeptidyl Peptidase IV and of Enzymes Having an Analogous Effect on the Dextran Sulfate-Induced Colitis in Mice (Animal Model of Chronic Inflammatory Intestinal Diseases)
An inflammation relating predominantly to the colon (equivalent to the disease of human Colitis ulcerosa) was induced by an administration of 3% sodium dextran sulfate dissolved in the drinking water of female Balb/c mice having an age of 8 weeks. […] The peptidase inhibitors (or phosphate-buffered saline as a placebo) were administered intraperitoneally from day 5 on for three successive days. The degree of the disease was determined in accordance with an acknowledged evaluation system (score). The following parameters were considered when determining the score: Consistency of the excrements (solid=0 points (pts.); pasty=2 pts.; liquid/like diarrhea=4 pts.); detection of blood in the excrements (no blood=0 pts.; occult blood=2 pts.; evident=4 pts.); loss of weight (0-5%=0 pts.; 5 to 10%=1 pts.; 10-15%=2 pts.; 15-20%=3 pts.; >20%=4 pts.). Healthy animals have a score value of 0 pts.; the maximum value are 12 pts. From 10 pts. on, the disease is lethal. In the course of the disease, the score value increased due to the change of the excrement parameters. […]

Compound	reduction of the heaviness of the disease (colitis score)
CCCCC[C@H](CC(=O)NO)C(=O)N[C@H](C(=O)N1CCC[C@H]1CO)C(C)C [Actinonine]	−16.5%
N[C@@H](CCCCNC(=O)OCc1ccc([N+](=O)[O-])cc1)C(=O)N1CCCC1 [Lys[Z(NO2)]pyrrolidide]	−12.3%
